The results in this text go back to BindingDB's records for doi:10.7270/Q20P0XHD (Burnham Center For Chemical Genomics, 2011).

What is called IC50 is the concentration that inhibits the measured activity by half. A higher IC50 goes with weaker potency in that assay.

The target of this assay is T1, C-C chemokine receptor type 6 (Homo sapiens, UniProt P51684).
T1 sequence (P51684 whole entry): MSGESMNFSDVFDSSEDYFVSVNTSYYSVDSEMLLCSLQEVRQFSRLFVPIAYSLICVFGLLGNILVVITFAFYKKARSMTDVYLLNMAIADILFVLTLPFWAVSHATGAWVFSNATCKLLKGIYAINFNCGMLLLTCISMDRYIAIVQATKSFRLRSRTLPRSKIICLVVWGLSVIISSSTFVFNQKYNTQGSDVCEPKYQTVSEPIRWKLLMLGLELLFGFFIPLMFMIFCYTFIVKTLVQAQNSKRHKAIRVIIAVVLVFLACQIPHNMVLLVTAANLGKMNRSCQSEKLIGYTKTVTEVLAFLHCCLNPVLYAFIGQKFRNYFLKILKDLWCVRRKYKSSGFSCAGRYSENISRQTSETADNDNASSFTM
Briefly: antagonism of CCR6 beta-arrestin recruitment – cell-based, luminescent beta-arrestin readout, dose response (AID 504728). (In general: Recruitment of arrestin is a read-out of receptor activation apart from second messengers.)
`COc1ccc(-n2c(O)c(CN=Nc3nc(C)cc(C)n3)c3ccccc3c2=O)cc1OC` [SMR000385482] had an IC50 of 0.594 µM.

`Cc1cc(N=NCc2ccc(F)cc2)nc(-n2nc(C)cc2C)n1` [SMR000426945]: the half-maximal inhibitory concentration (IC50) was over 66.6 µM.

The molecule `COC1=CC=CC(CN=Nc2nc(Nc3ccc([N+](=O)[O-])cc3)nc(N3CCCC3)n2)C1=O` (centres undefined) [2-hydroxy-3-methoxybenzaldehyde {4-[(4-nitrophenyl)amino]-6-pyrrolidin-1-yl-1,3,5-triazin-2-yl}hydrazone] returned a concentration for half-maximal inhibition (IC50) of 1.64 µM. In other words, the single-digit micromolar range.

Molecule `CCCC1CCC(=NNC(=S)NCCc2ccccc2)CC1` (centres undefined) [SMR000347544] showed an IC50 of over 66.6 µM.

In turn, `O=Nc1c(C2C(=O)Nc3cc(Br)ccc32)[nH]c2ccccc12` (centres undefined) [6-bromoindirubin-3-oxime] returned a 50% inhibitory concentration (IC50) of over 66.6 µM.

The molecule `CC(NO)C(=O)C(=CN1CCCCC1)CN1CCCCC1` (centres undefined) yielded a half-maximal inhibitory concentration (IC50) of over 66.6 µM.

On to `O=C1C([N+](=O)[O-])=CC(Cl)=CC1CN=Nc1ccccn1` (centres undefined) [MLS000539830], for which the IC50 was over 66.6 µM.

For the molecule `O=C1Nc2ccc([N+](=O)[O-])cc2/C1=N/NC(=O)c1cc(-c2ccccc2Cl)nc2ccccc12` [2-(2-chlorophenyl)-N'-(2-keto-5-nitro-indol-3-yl)cinchoninohydrazide], the concentration for half-maximal inhibition (IC50) was over 66.6 µM.

Regarding `O=C1C=CC([N+](=O)[O-])=CC1CN=Nc1ccccn1` (centres undefined) [MLS000585015], the half-maximal inhibitory concentration (IC50) is over 66.6 µM.

In turn, `O=C1C([N+](=O)[O-])=CC=CC1CN=Nc1ccc2ccccc2n1` (centres undefined) [(6E)-2-nitro-6-[(2-quinolin-2-ylhydrazinyl)methylidene]cyclohexa-2,4-dien-1-one] displayed an IC50 of over 66.6 µM.

Molecule `N#CC(=C1C=CC(N=O)C(Cl)=C1)c1ccc(Cl)cc1` (centres undefined) [SMR001570423] registered an IC50 of over 66.6 µM.

`CN1C(=O)C(C2CC(c3ccc(Cl)cc3)N=N2)C(=O)N(C)C1=O` (centres undefined) [SMR000439471] had a half-maximal inhibitory concentration (IC50) of 14.9 µM.

The molecule `O=C1C(/C=N/c2ccc(N3CCOCC3)cc2)=CC(Cc2ccccc2)C=C1[N+](=O)[O-]` (centres undefined) [SMR000231104] gave an IC50 of over 66.6 µM.

For the molecule `Cc1cc(C)nc(NNC=C2C(=O)CC(c3ccc(F)cc3)CC2=O)n1` (centres undefined), the IC50 was over 66.6 µM.

As to `COc1cccc(CN=Nc2nc(Nc3ccccc3)nc(-n3nc(C)cc3C)n2)c1O` [(6E)-6-[[2-[4-(3,5-dimethylpyrazol-1-yl)-6-phenylazanyl-1,3,5-triazin-2-yl]hydrazinyl]methylidene]-2-methoxy-cyclohexa-2,4-dien-1-one], the half-inhibitory concentration (IC50) was over 66.6 µM.

In turn, `CN(C)c1nc(N=NCc2ccccc2O)nc(Nc2ccc(F)cc2)n1` [(6E)-6-[[2-[4-(dimethylamino)-6-(4-fluoroanilino)-1,3,5-triazin-2-yl]hydrazinyl]methylidene]cyclohexa-2,4-dien-1-one] gave an IC50 of over 66.6 µM.

In turn, `CC(C)(C)C1CCC(=NNC(=S)NCc2ccccc2)CC1` (centres undefined) [SMR000377499] yielded a half-maximal inhibitory concentration (IC50) of over 66.6 µM.

The molecule `C=CCSC(N)=NN=CC1C=C(Br)C=C([N+](=O)[O-])C1=O` (centres undefined) [N''-[[(E)-(3-bromo-5-nitro-6-oxo-1-cyclohexa-2,4-dienylidene)methyl]amino]carbamimidothioic acid prop-2-enyl ester] gave an IC50 of over 66.6 µM.

Molecule `C/C=C(\C)C(=O)OC1[C@H](OC(C)=O)C2(CO)C(CC1(C)C)C1=CCC3C4(C)CCC(O[C@@H]5O[C@H](C(=O)O)[C@@H](O[C@@H]6O[C@H](CO)[C@@H](O)[C@H](O)[C@H]6O)[C@H](O)[C@H]5O[C@H]5O[C@H](CO)[C@@H](O)[C@H](O)[C@H]5O)[C@](C)(CO)C4CCC3(C)[C@]1(C)C[C@H]2O` (some centres undefined) [MLS002695979] yielded a concentration for half-maximal inhibition (IC50) of 16.4 µM.
